# Results: patent US5750712A, “2-(n-cyanoimino)-thiazolidin-4-one derivatives” (priority 1994, dated 1998)
# Counter-ions that a name gives are not always drawn. Like-named read-outs stand apart in the source and are kept apart here.
# Columns and labels:
# aldose reducing enzyme [1] = details: in words, prior-art compound; cited from earlier work
# cycloxygenase = details: in words, prior-art compound; cited from earlier work
# 5-lipoxygenase = details: in words, prior-art compound; cited from earlier work
# aldose reducing enzyme [2] = molecular target: aldose reducing enzyme (Homo sapiens, UniProt P15121); experiment: Aldose reducing enzyme inhibiting activity (method of Hayman et al.); type: biochemical, Recombinant; details: read-out: Inhibition rate (%)
# [3] = 1.0×10^-7 mol concentration level of the tested compound, human recombinant enzyme
Structure (SMILES),inhibition at 0.1 µM (aldose reducing enzyme [2]; [3]),other results
CC(C)(C)c1cc(C=C2SC(=NC#N)NC2=O)cc(C(C)(C)C)c1O,–,aldose reducing enzyme inhibiting action (aldose reducing enzyme [1]): no aldose reducing enzyme inhibiting action; cycloxygenase inhibiting action (cycloxygenase): 5-lipoxygenase and cycloxygenase inhibiting actions; 5-lipoxygenase inhibiting action (5-lipoxygenase): 5-lipoxygenase and cycloxygenase inhibiting actions
"N#CN=C1NC(=O)C(=Cc2ccc3c(c2)OCO3)S1 [Example 4, 2-(N-cyanoimino)-5-(3,4-methylenedioxybenzylidene) thiazolidin-4-one]",44%,–
"N#CN=C1NC(=O)C(=Cc2ccc3ccccc3c2)S1 [Example 5, 2-(N-cyanoimino)-5-(2-naphthylmethylene) thiazolidin-4-one]",44%,–
"COc1ccc2cc(C=C3SC(=NC#N)NC3=O)ccc2c1 [Example 8, 2-(N-cyanoimino)-5-[2-(6-methoxynaphthyl)methylene]thiazolidin-4-one]",68%,–
"N#CN=C1NC(=O)C(=Cc2cccc3ccccc23)S1 [Example 9, 2-(N-cyanoimino)-5-(1-naphthylmethylene) thiazolidin-4-one]",20%,–
"COc1cc(C=C2SC(=NC#N)NC2=O)ccc1O [Example 10, 2-(N-cyanoimino)-5-(4-hydroxy-3-methoxybenzylidene) thiazolidin-4-one]",100%,–
"Cc1cccc(C=C2SC(=NC#N)NC2=O)c1 [Example 11, 2-(N-cyanoimino)-5-(3-methylbenzylidene) thiazolidin-4-one]",52%,–
"COc1ccccc1C=CC=C1SC(=NC#N)NC1=O [Example 12, 2-(N-cyanoimino)-5-[3-(2-methoxyphenyl)propenylidene] thiazolidin-4-one]",84%,–
"CC(=C1SC(=NC#N)NC1=O)c1ccccc1 [Example 13, 2-(N-cyanoimino)-5-(1-phenylethylidene) thiazolidin-4-one potassium salt]",–,inhibition at 0.1 µM (aldose reducing enzyme [2]): 60%
"CC(=C1SC(=NC#N)NC1=O)c1ccc2ccccc2c1 [Example 15, 2-(N-cyanoimino)-5-[1-(2-naphthyl)ethylidene] thiazolidin-4-one]",64%,–

# Further lines, with some results ahead:
inhibition at 0.1 µM (aldose reducing enzyme [2]; [3]),Structure (SMILES),other results
72%,"CC(=Cc1ccccc1)C=C1SC(=NC#N)NC1=O [Example 1, 2-(N-cyanoimino)-5-(2-methyl-3-phenylpropenylidene) thiazolidin-4-one]",–
100%,"CC(=Cc1ccccc1)C=C1SC(=NC#N)N(CC(=O)O)C1=O [Example 2, 2-(N-cyanoimino)-5-(2-methyl-3-phenylpropenylidene)-4-oxo-3-thiazolidine acetic acid]",–
12%,"CC(=Cc1ccccc1)C=C1SC(=NC#N)N(C)C1=O [Example 3, 2-(N-cyanoimino)-3-methyl-5-(2-methyl-3-phenylpropenylidene) thiazolidin-4-one]",–
32%,"N#CN=C1NC(=O)C(=Cc2ccccc2)S1 [Example 6, 5-benzylidene-2-(N-cyanoimino)-4-oxythiazolidine]",–
44%,"N#CN=C1NC(=O)C(=CC=Cc2ccccc2)S1 [Example 7, 2-(N-cyanoimino)-5-(3-phenylpropenylidene) thiazolidin-4-one]",–
12%,"CCC(=C1SC(=NC#N)NC1=O)c1ccccc1 [Example 14, 2-(N-cyanoimino)-5-(1-phenylpropylidene) thiazolidin-4-one]",–
